Earlier results as cited in patent US7326683B2, “Treatment of membrane-associated diseases and disorders using lantibiotic containing compositions” (Molichem Medicines, Inc., priority 2004, dated 2008).

Columns and labels:
[1] = aspirin used after the sentinel event, atherosclerotic heart disease (ASHD)
[2] = test system: clatharin-coated vesicle; conditions: clatharin-coated vesicle acidification; Stone et al., J. Biol. Chem. 259: 2701-2703 (1984)

Compound	decrease of risk of MI [1]	inhibition of the proton translocation facilitated by chloride translocation [2]
CC(=O)Oc1ccccc1C(=O)O [aspirin]	approximately 50%	
duramycin		up to 50%
